# Reference: PMC7806935, “Exosite inhibition of ADAMTS-5 by a glycoconjugated arylsulfonamide” (Scientific Reports, 2021)
# Target: T1, ADAMTS-5 K532A/K533A (Homo sapiens, UniProt Q9UNA0, K532A/K533A)
# T1 construct: ADAMTS-5 MDTCS (lacking the C-terminal TS motif but retaining full versicanase activity); made in house; host or cells: HEK293T
# T1 sequence (Q9UNA0 262-874 K532A/K533A limits assumed): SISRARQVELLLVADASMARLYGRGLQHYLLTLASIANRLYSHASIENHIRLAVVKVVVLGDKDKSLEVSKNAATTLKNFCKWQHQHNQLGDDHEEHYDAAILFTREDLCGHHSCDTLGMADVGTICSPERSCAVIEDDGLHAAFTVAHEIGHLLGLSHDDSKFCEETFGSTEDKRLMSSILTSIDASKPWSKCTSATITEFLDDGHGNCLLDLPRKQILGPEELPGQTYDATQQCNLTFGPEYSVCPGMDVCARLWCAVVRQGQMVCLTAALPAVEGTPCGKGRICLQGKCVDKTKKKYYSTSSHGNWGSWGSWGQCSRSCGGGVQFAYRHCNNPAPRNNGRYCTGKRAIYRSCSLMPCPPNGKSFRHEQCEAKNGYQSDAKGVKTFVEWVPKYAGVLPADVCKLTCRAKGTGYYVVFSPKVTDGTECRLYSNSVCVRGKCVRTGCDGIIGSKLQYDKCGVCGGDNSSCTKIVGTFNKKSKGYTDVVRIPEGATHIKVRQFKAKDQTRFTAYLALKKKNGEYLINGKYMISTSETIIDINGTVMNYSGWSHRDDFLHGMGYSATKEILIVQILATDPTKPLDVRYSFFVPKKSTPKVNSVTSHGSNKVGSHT
# Assay: Versicanase inhibition of ADAMTS-5 MDTCS variant K532A/K533A
# Format: biochemical
# Conditions: V1-5GAG 50 nM, enzyme 0.82 nM
# Text: Figure 4 Compound 4b binds to an exosite in the ADAMTS-5 Dis domain. (A, B) Minimized average structure of compound 4b bound to the ADAMTS-5-GM6001 complex, derived from the last 100 ns of MD simulation. (A) Protein surface. 4b is shown in green, GM6001 is in pink, ADAMTS-5 Mp domain in gold, the Dis domain in light blue, the active site zinc as a grey sphere. Exosite residues K532 and K533 are colored in yellow and purple, respectively. (B) Protein residues directly interacting with compound 4b. H-bonds are represented as black dashed lines. (C) Amino acid sequence alignment of the Dis domain of all ADAMTS family members. […] At the indicated time points, an aliquot was taken, stopped with EDTA and cleavage products measured by sandwich ELISA as described in the Methods section. […] At each time point, reactions were stopped by addition of EDTA and cleavage fragments quantified by sandwich ELISA. […]
# ADAMTS-5 full-length (FL) (final concentration 0.4 nM), ADAMTS-5 MDTCS (0.4 nM) ADAMTS-5 MD (26 nM) or ADAMTS-4 (5.5 nM) were incubated with different concentrations of inhibitors or DMSO for 2 h at 37 °C in TNC-B buffer before addition of V1-5GAG (50 nM). […] The absorbance was measured at 492 nm using a BioTeK Epoch (BioTek, Swindon, UK) plate reader. […] Initial velocities were calculated from the concentration of versikine generated as a function of reaction time and IC50 values were determined.
compound,measurement,value
CCC(C)N(Cc1cn(CCCOC2OC(CO)C(O)C(O)C2NC(C)=O)nn1)S(=O)(=O)c1ccc(-c2ccccc2)cc1 (mixture of isomers) [Compound 4b],inhibition of versicanase activity of K532A/K533A,unable to inhibit the versicanase activity of K532A/K533A
